Source: ChEMBL document CHEMBL1201862, “PubChem BioAssay data set” (2004)
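Growth conditions: 96-well plates. Treatment: test compound, 48 hours, 5 concentrations. Analysis: linear interpolation between bracketing concentrations; unreached endpoints set to highest concentration. GI50: concentration for 50% inhibition of growth.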 The source made the active and inactive calls. No stated cut-off is given here; in the data, active = GI50 up to about 1.1 µM and inactive = higher.

How the values were obtained:
Test in all cases: NCI anticancer screen, dose series, 48 h
CAKI-1 = tested on: CAKI-1
COLO 205 = tested on: COLO 205
EKVX = tested on: EKVX
HOP-62 = tested on: HOP-62
KM12 = tested on: KM12
MCF7 = tested on: MCF7
MDA-N = tested on: MDA-N
Malme-3M = tested on: Malme-3M
NCI-H23 = tested on: NCI-H23
NCI-H460 = tested on: NCI-H460
OVCAR-4 = tested on: OVCAR-4
SK-MEL-28 = tested on: SK-MEL-28
SK-OV-3 = tested on: SK-OV-3
TK-10 = tested on: TK-10
BT-549 = tested on: BT-549
MDA-MB-231 = tested on: MDA-MB-231
MDA-MB-435 = tested on: MDA-MB-435
OVCAR-3 = tested on: OVCAR-3
SF-539 = tested on: SF-539
UACC-62 = tested on: UACC-62

Measured: GI50

CCC(=O)C1(c2ccccc2)CCN(C)CC1
inactive: CAKI-1 > 100 µM | COLO 205 > 100 µM | EKVX > 100 µM | HOP-62 > 100 µM | KM12 > 100 µM | MCF7 > 100 µM | MDA-N > 100 µM | Malme-3M > 100 µM | NCI-H23 > 100 µM | NCI-H460 > 100 µM | OVCAR-4 > 100 µM | SK-MEL-28 > 100 µM | SK-OV-3 > 100 µM | TK-10 > 100 µM

Cc1ccc(C(=N)c2ccccc2Cc2cccc3ccccc23)c2ccccc12
inactive: BT-549 > 100 µM | CAKI-1 > 100 µM | COLO 205 22.1 µM | EKVX 60.1 µM | HOP-62 > 100 µM | KM12 > 100 µM | MCF7 42.6 µM | MDA-MB-231 > 100 µM | MDA-MB-435 > 100 µM | Malme-3M > 100 µM | NCI-H23 95.3 µM | NCI-H460 41.5 µM | OVCAR-3 79.1 µM | OVCAR-4 > 100 µM | SF-539 > 100 µM | SK-MEL-28 > 100 µM | SK-OV-3 > 100 µM | TK-10 > 100 µM | UACC-62 99.1 µM

CN(C)C(=O)C(F)(F)C(c1ccccc1)C1C(=O)N(C)C(=O)N(C)C1=O (configuration not stated)
inactive: BT-549 > 100 µM | CAKI-1 > 100 µM | COLO 205 > 100 µM | EKVX > 100 µM | HOP-62 > 100 µM | KM12 > 100 µM | MCF7 > 100 µM | MDA-MB-231 > 100 µM | MDA-MB-435 > 100 µM | NCI-H23 > 100 µM | NCI-H460 > 100 µM | OVCAR-3 > 100 µM | OVCAR-4 > 100 µM | SK-MEL-28 > 100 µM | SK-OV-3 > 100 µM | TK-10 > 100 µM | UACC-62 > 100 µM

CN1C(=O)C2(C=CC(O)CC2)c2ccccc21 (configuration not stated)
inactive: CAKI-1 > 100 µM | COLO 205 > 100 µM | EKVX > 100 µM | HOP-62 > 100 µM | KM12 > 100 µM | MCF7 > 100 µM | MDA-MB-231 > 100 µM | MDA-MB-435 > 100 µM | MDA-N > 100 µM | NCI-H23 > 100 µM | NCI-H460 > 100 µM | OVCAR-3 > 100 µM | OVCAR-4 > 100 µM | SK-MEL-28 > 100 µM | SK-OV-3 > 100 µM | TK-10 > 100 µM | UACC-62 > 100 µM

COC(=O)/C(=N\N)C(C(=O)C(=O)Nc1nnc(S)[nH]1)c1nc2ccc([N+](=O)[O-])cc2nc1O (configuration not stated)
inactive: CAKI-1 > 100 µM | COLO 205 > 100 µM | EKVX > 100 µM | HOP-62 > 100 µM | KM12 > 100 µM | Malme-3M > 100 µM | NCI-H23 > 100 µM | NCI-H460 > 100 µM | OVCAR-3 > 100 µM | OVCAR-4 > 100 µM | SF-539 > 100 µM | SK-MEL-28 > 100 µM | SK-OV-3 > 100 µM | TK-10 > 100 µM | UACC-62 > 100 µM

CC1(C(=O)O)CCC[C@@]2(C)C1CC[C@@]1(C)c3cocc3CCC21 (some centres not stated)
inactive: CAKI-1 > 100 µM | COLO 205 > 100 µM | EKVX > 100 µM | HOP-62 > 100 µM | KM12 > 100 µM | Malme-3M > 100 µM | NCI-H23 > 100 µM | NCI-H460 > 100 µM | OVCAR-3 > 100 µM | OVCAR-4 > 100 µM | SF-539 > 100 µM | SK-MEL-28 > 100 µM | SK-OV-3 > 100 µM | TK-10 > 100 µM | UACC-62 > 100 µM

O=C1/C(=C\c2ccccc2)c2ccccc2N1/N=C\c1ccccc1
inactive: CAKI-1 > 100 µM | COLO 205 > 100 µM | EKVX 23.2 µM | HOP-62 > 100 µM | KM12 49.1 µM | Malme-3M > 100 µM | NCI-H23 > 100 µM | NCI-H460 > 100 µM | OVCAR-3 91.8 µM | OVCAR-4 > 100 µM | SF-539 > 100 µM | SK-MEL-28 > 100 µM | SK-OV-3 > 100 µM | TK-10 > 100 µM | UACC-62 90.4 µM

O=c1ss/c(=N\c2ccccc2)n1-c1ccccc1
inactive: COLO 205 26.1 µM | EKVX 33.7 µM | HOP-62 20.6 µM | KM12 30.8 µM | MCF7 19.5 µM | MDA-MB-231 25.9 µM | MDA-MB-435 31.9 µM | MDA-N 34.5 µM | Malme-3M > 100 µM | NCI-H23 21.7 µM | NCI-H460 81.7 µM | OVCAR-3 22.3 µM | OVCAR-4 17 µM | SF-539 35.9 µM | SK-MEL-28 36.9 µM | SK-OV-3 > 100 µM | TK-10 50.6 µM | UACC-62 31.1 µM

CSc1nc(C)c2c(n1)N(c1ccc(Cl)cc1)CC2
inactive: CAKI-1 > 100 µM | COLO 205 > 100 µM | EKVX > 100 µM | HOP-62 > 100 µM | KM12 > 100 µM | MCF7 > 100 µM | MDA-MB-231 42.3 µM | MDA-MB-435 > 100 µM | MDA-N > 100 µM | Malme-3M > 100 µM | NCI-H23 > 100 µM | NCI-H460 > 100 µM | OVCAR-3 > 100 µM | OVCAR-4 61.4 µM | SF-539 70.8 µM | SK-MEL-28 > 100 µM | SK-OV-3 > 100 µM | TK-10 > 100 µM | UACC-62 > 100 µM

O=C(CCC(C(=O)OCc1ccccc1)C(=O)OCc1ccccc1)Nc1ccc(OCc2ccccc2)cc1
inactive: CAKI-1 > 100 µM | COLO 205 41 µM | EKVX > 100 µM | HOP-62 > 100 µM | KM12 > 100 µM | MCF7 13.2 µM | MDA-MB-231 22.6 µM | MDA-MB-435 67.8 µM | MDA-N 49.8 µM | Malme-3M > 100 µM | NCI-H23 40.3 µM | NCI-H460 59.4 µM | OVCAR-3 > 100 µM | OVCAR-4 47.1 µM | SF-539 > 100 µM | SK-MEL-28 > 100 µM | SK-OV-3 > 100 µM | TK-10 63.4 µM | UACC-62 > 100 µM

CCCCCCCCCCCCCCCCCCOCC(CO[PH](=O)O)OCCCCCCCCCCCCCCCCCC (configuration not stated)
inactive: CAKI-1 > 50 µM | COLO 205 > 50 µM | EKVX > 50 µM | KM12 > 50 µM | MCF7 > 50 µM | MDA-MB-231 > 50 µM | MDA-MB-435 > 50 µM | MDA-N > 50 µM | NCI-H460 > 50 µM | OVCAR-3 > 50 µM | OVCAR-4 > 50 µM | SF-539 > 50 µM | SK-MEL-28 > 50 µM | SK-OV-3 > 50 µM | TK-10 > 50 µM

COC(=O)c1cccc(C)c1C1CN=NC12Cc1cc(C)cc(C)c1C2=O (configuration not stated)
inactive: CAKI-1 78.2 µM | EKVX 26.3 µM | HOP-62 53 µM | KM12 34.4 µM | MCF7 40.4 µM | MDA-MB-231 30.1 µM | MDA-MB-435 30.1 µM | MDA-N 26.7 µM | Malme-3M 32.2 µM | NCI-H23 41.4 µM | NCI-H460 30.8 µM | OVCAR-3 47.1 µM | OVCAR-4 51.1 µM | SF-539 56.4 µM | SK-MEL-28 60.4 µM | TK-10 > 100 µM

SC1=NNC2(C(S)=N1)c1ccccc1-c1ccccc12
inactive: BT-549 > 10 µM | CAKI-1 > 10 µM | COLO 205 > 10 µM | EKVX > 10 µM | HOP-62 > 10 µM | KM12 > 10 µM | MCF7 5.37 µM | MDA-MB-231 > 10 µM | Malme-3M > 10 µM | NCI-H23 > 10 µM | NCI-H460 > 10 µM | OVCAR-4 > 10 µM | SF-539 > 10 µM | SK-OV-3 > 10 µM | TK-10 > 10 µM | UACC-62 > 10 µM

O=c1[nH]nc(-c2ccccc2)c(-c2ccccc2)c1-n1nc(-c2ccccc2)c2ccccc2c1=O
inactive: CAKI-1 > 100 µM | COLO 205 34.6 µM | EKVX > 100 µM | HOP-62 > 100 µM | KM12 65.8 µM | Malme-3M > 100 µM | NCI-H23 > 100 µM | NCI-H460 90.6 µM | OVCAR-3 51.5 µM | OVCAR-4 > 100 µM | SF-539 > 100 µM | SK-MEL-28 > 100 µM | SK-OV-3 > 100 µM | TK-10 > 100 µM | UACC-62 > 100 µM

O=[N+]([O-])c1ccc(C2CC(c3ccccc3Cl)=Nc3ccccc3S2)cc1 (configuration not stated)
inactive: CAKI-1 4.46 µM | COLO 205 15.8 µM | EKVX 14.5 µM | HOP-62 22.3 µM | KM12 3.08 µM | Malme-3M 10.9 µM | NCI-H23 6.15 µM | NCI-H460 6.85 µM | OVCAR-3 8.79 µM | OVCAR-4 9.84 µM | SF-539 6.65 µM | SK-MEL-28 8.34 µM | SK-OV-3 29 µM | TK-10 18.8 µM | UACC-62 3.99 µM

COc1cc(O)c(C(C)=O)c(O)c1
inactive: COLO 205 > 100 µM | EKVX 37.4 µM | HOP-62 > 100 µM | KM12 > 100 µM | MCF7 37.5 µM | MDA-MB-435 82.6 µM | MDA-N > 100 µM | Malme-3M > 100 µM | NCI-H23 30.8 µM | NCI-H460 88.1 µM | OVCAR-3 > 100 µM | OVCAR-4 76.2 µM | SF-539 > 100 µM | SK-MEL-28 52.6 µM | SK-OV-3 > 100 µM | TK-10 > 100 µM | UACC-62 46.1 µM
